Results reported in US20240182456A1, “2-((4-((S)-2-(4-CHLORO-2-FLUOROPHENYL)-2-METHYLBENZO[D][1,3]DIOXOL-4-YL)PIPERIDIN-1-YL)METHYL)-1-(((S)-OXETAN-2-YL)METHYL)-1H-IMIDAZOLE DERIVATIVES AS ACTIVATORS OF THE GLP1 RECEPTOR FOR THE TREATMENT OF OBESITY” (Novartis AG, priority 2021, published 2024).

Molecular target: human GLP1R (hGLP1R) (Homo sapiens, UniProt P43220)
Assay: Human GLP1R β-arrestin recruitment assay (PathHunter)
Type: cell-based
Parameters: insert synthesized by GeneArt 93-0164 (cells); 93-0491 (vector bundle)
Conditions: CHO-hGLP1R-β-arrestin cells; for EC50: mean n=2, read-out: Beta-Arrestin assay EC50 Mean; for Emax: relative to GLP1(7-36), read-out: Beta-Arrestin assay Emax
Method: Compounds 1 to 31 were tested in the following cellular assays that measure the intracellular cAMP concentration, beta-arrestin recruitment and receptor internalization. The cAMP is generated by the activation of GLP1R. The cAMP data obtained is shown in Table 1 (where S.E.M. is included, mean n=3 independent experiments+/−S.E.M). Beta-arrestin is recruited upon activation of GLP1R and the data obtained are shown in Table 2 (mean n=2 independent experiments, +/−S.D). The extent to which the GLP1R is internalized into the cell and away from the plasma membrane following activation is also shown in Table 2 (mean n=2 independent experiments, +/−S.D). EC50 for each assay is defined as the concentration of the compound that leads to half of the maximum response (after baseline correction). Emax is defined as the maximum response observed for the test compound, normalized to the maximum response observed for the endogenous ligand (GLP1(7-36)) to GLP1R.
The extent to which agonists recruited β-arrestin was measured using the PathHunter® β-arrestin assay (DiscoverX). This assay measures binding of β-arrestin to the receptor using an enzyme complementation approach. […] When β-arrestin is recruited to the receptor the enzyme becomes active and generates luminescence in the presence of a chemiluminescent substrate (PathHunter® Detection Kit, DiscoverX cat #93-0001). Luminescence can be measured on a relevant detector. CHO-hGLP1R-β-arrestin cells stably overexpressing hGLP1R with Prolink tag and β-arrestin with EA tag were seeded at 20 μL per well in white 384-well poly-D-Lysine coated plates (Greiner Bio One, cat #781945) in Plating Reagent 2 (DiscoverX, cat #93-0563R2A), and incubated overnight at 37° C., 5% CO2 with humidity. The following day, agonists were prepared at 5 times the final required concentration. To generate triplicate dose response curves, compounds were serially diluted 3-fold in assay buffer (HBSS, 10 mM Hepes and 0.1% BSA), then added to the cell assay plate to a final volume of 25 μL and final top concentrations starting at 30 μM. In the same plate and assay buffer as the tested compounds, were EC100 control wells containing GLP1 (7-36) peptide (Bachem, cat #H-6795) at a final concentration of 1 μM and also EC0 control wells containing no compound. The plate was incubated at 37° C., 5% CO2 with humidity for 2 h after adding the compounds to the cells. Then the detection reagent was prepared (19 parts cell assay buffer, 5 parts substrate reagent 1 and 1 part substrate reagent 2 as per manufacturers recommendations, DiscoverX cat #93-0001), and 12 μL were added per well to the cell assay plate. The plate was incubated for an additional hour in the dark at RT. Luminescence was then measured with an Envision 2104 Multilabel reader with “TRF Light Unit, 337 nm” (Perkin Elmer) using the Ultra-Sensitive protocol setting “384-well US luminescence detector” with the 384-well luminescence aperture, 0.1 sec per well. β-arrestin recruitment was calculated and expressed as percent of the GLP1 (7-36) EC100 control wells: [(sample signal−mean EC0 signal)/(mean EC100 of GLP1 (7-36) signal−mean EC0 signal)]*100 using Microsoft Excel. Curve fitting for EC50 determinations was performed using GraphPad Prism. The 4-parameter logistic model, Hill slope was used: Y=Bottom+(Top−Bottom)/(1+10^((Log EC50−X)*Hill Slope)), where Y is the functional response; X is the compound concentration; bottom is A0 or the minimum value (at 0 dose); top is Ainf or the maximum value (at infinite dose); EC50 is the point of inflection (i.e. the point on the sigmoid shaped curve halfway between A0 and Ainf). The EC50 value was calculated in μM. Emax is the maximal activity detected within the concentration range, derived from the fitted curve relative to GLP1(7-36). […]

Chain of human GLP1R (hGLP1R) (P43220 24-463): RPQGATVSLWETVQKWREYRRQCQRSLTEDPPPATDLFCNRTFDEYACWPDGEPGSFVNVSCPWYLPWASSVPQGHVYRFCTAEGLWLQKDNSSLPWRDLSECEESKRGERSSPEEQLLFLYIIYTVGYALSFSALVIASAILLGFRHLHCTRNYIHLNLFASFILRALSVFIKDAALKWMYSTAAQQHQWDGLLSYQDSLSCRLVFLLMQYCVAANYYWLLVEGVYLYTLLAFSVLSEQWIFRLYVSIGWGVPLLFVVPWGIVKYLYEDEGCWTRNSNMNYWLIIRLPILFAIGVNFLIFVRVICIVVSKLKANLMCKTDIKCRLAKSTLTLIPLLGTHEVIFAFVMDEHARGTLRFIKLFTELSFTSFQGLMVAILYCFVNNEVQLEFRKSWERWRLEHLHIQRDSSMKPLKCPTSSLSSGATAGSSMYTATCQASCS

Cc1nc(CN2CCC(c3cccc4c3O[C@@](C)(c3ccc(Cl)cc3F)O4)CC2)n(C[C@@H]2CCO2)c1/C=C/C(=O)O [Compound C-5, (E)-3-(2-((4-((S)-2-(4-chloro-2-fluorophenyl)-2-methylbenzo[d][1,3]dioxol-4-yl)piperidin-1-yl)methyl)-4-methyl-1-(((S)-oxetan-2-yl)methyl)-1H-imidazol-5-yl)acrylic acid]
EC50: 404 nM
Emax: 12%

C[C@]1(c2ccc(Cl)cc2F)Oc2cccc(C3CCN(Cc4nc(/C=C/C(=O)O)cn4C[C@@H]4CCO4)CC3)c2O1 [Compound C-2, (E)-3-(2-((4-((S)-2-(4-chloro-2-fluorophenyl)-2-methylbenzo[d][1,3]dioxol-4-yl)piperidin-1-yl)methyl)-1-(((S)-oxetan-2-yl)methyl)-1H-imidazol-4-yl)acrylic acid]
EC50: > 30000 nM
Emax: 0%

C[C@]1(c2ccc(Cl)cc2F)Oc2cccc(C3CCN(Cc4ncc(/C=C/C(=O)O)n4C[C@@H]4CCO4)CC3)c2O1 [Compound C-1, (E)-3-(2-((4-((S)-2-(4-chloro-2-fluorophenyl)-2-methylbenzo[d][1,3]dioxol-4-yl)piperidin-1-yl)methyl)-1-(((S)-oxetan-2-yl)methyl)-1H-imidazol-5-yl)acrylic acid]
EC50: 494 nM
Emax: 9%

C[C@]1(c2ccc(Cl)cc2F)Oc2cccc(C3CCN(Cc4nc(C(F)(F)F)c(C(=O)O)n4C[C@@H]4CCO4)CC3)c2O1 [Compound C-7, 2-((4-((S)-2-(4-chloro-2-fluorophenyl)-2-methylbenzo[d][1,3]dioxol-4-yl)piperidin-1-yl)methyl)-1-(((S)-oxetan-2-yl)methyl)-4-(trifluoromethyl)-1H-imidazole-5-carboxylic acid]
EC50: > 30000 nM
Emax: 2%
